Reference: patent US20260201008A1, “SECRETIN-DERIVED GLP1R SELECTIVE AGONISTS” (GUBRA A/S, priority 2023, published 2026)
Where two headings read alike, the source gives them in different places. Numbered stars: 1 amine (or outer) side, 2 acyl side, 3 side chain; on linkers, the order of the positions; unused ones are H or OH. Square brackets hold non-standard residues; d marks the D form. Side chains are listed from the residue outwards. Peptide text beside a SMILES is read from it. * marks the point of attachment. C20 diacid = O=C(O)CCCCCCCCCCCCCCCCCCC(=O)*; γGlu = O=C(O)[C@H](CCC(=O)[*:2])N[*:1]; AEEA = NCCOCCOCC(=O)O; Aib = CC(C)(N)C(=O)O

How the values were obtained:
[1] = Turbidity of crude library peptides (absorbance at 600 nm); format: physicochemical; details: Physical stability of peptides
How it was run: (§1)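 Crude peptides at 267 μM in 50 mM sodium acetate pH 4.0 or 50 mM sodium phosphate pH 7.0, pre-incubated 1-2 h at room temperature, then 4 μM final ThT added. Turbidity read first as A600. ThT fluorescence (ex 450/em 480 nm) read every 10 min for 72 h at 40° C, with 5 min shaking before each read; fibril formation = average emission.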

[2] = Fibril formation of crude library peptides (Thioflavin T); format: physicochemical; parameters: key: average ThT fluorescence emission at 480 nm (ex 450 nm), raw units; details: Physical stability of peptides
How it was run: as §1

GLP1R = GLP1R (Homo sapiens, UniProt P43220); experiment: hGLP1R potency, cAMP accumulation in CHO-K1 cells stably overexpressing hGLP1R; format: cell-based; parameters: host or cells: CHO-K1; details: for EC50: cAMP accumulation; for SCTR EC50/GLP1R EC50 ratio: cAMP accumulation in CHO-K1 cells
How it was run: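 CHO-K1 cells stably expressing hGLP1R (2000/well) in DPBS with 0.05% casein and 0.5 mM IBMX were stimulated 30 min at room temperature with graded compound doses; human GLP-1(7-36) served as positive control. cAMP was read by HTRF after 1 h; EC50 came from variable-slope sigmoid fits (purified peptides: 11-point 3-fold, n=2).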

SCTR = SCTR (Homo sapiens, UniProt P47872); experiment: hSCTR potency, cAMP accumulation in CHO-K1 cells stably overexpressing hSCTR; format: cell-based; parameters: alternatively Euroscreen ES-712-AF; FAST-0161L; host or cells: CHO-K1; details: cAMP accumulation
How it was run: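 Cells plated at 2000/well in DPBS with 0.05% casein and 0.5 mM IBMX, stimulated 30 min at room temperature with graded compound doses; human secretin as positive control. cAMP read by TR-FRET after 1 h. Purified peptides tested at 11 3-fold dilutions, n=2; EC50 by variable-slope sigmoid fit.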

[3] = CHO-K1 cells overexpressing hGLP1R, read-out: hGLP1R pEC50 (converted)
[4] = selectivity for hGLP1R over hSCTR
[5] = CHO-K1 cells overexpressing hSCTR, read-out: hSCTR pEC50 (converted)

Sequence of GLP1R (P43220 24-463): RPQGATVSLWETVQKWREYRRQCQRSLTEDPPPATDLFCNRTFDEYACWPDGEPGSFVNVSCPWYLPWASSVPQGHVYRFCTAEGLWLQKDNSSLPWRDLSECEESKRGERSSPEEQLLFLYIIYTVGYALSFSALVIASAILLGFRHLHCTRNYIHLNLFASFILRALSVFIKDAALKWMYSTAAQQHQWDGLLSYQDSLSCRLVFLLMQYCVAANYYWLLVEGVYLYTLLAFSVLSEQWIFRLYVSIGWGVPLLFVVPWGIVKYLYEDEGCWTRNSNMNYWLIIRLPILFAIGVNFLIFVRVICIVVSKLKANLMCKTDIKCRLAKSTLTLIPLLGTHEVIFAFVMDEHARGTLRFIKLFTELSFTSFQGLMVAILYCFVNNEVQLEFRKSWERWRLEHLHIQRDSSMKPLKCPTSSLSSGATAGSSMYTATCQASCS
Sequence of SCTR (P47872 23-440): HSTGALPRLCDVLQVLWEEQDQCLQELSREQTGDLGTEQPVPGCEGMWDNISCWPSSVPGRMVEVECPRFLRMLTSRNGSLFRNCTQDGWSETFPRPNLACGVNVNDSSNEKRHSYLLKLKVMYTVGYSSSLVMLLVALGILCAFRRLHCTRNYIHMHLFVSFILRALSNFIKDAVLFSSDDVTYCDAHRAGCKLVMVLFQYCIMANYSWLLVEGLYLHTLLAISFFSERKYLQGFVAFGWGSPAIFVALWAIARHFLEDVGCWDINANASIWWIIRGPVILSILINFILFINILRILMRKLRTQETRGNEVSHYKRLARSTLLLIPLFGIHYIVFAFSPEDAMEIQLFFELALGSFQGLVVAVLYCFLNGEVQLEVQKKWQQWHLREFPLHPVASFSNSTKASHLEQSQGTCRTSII

Row | Compound | Turbidity (pH 7) [1] | Fibril formation [2] | Selectivity (GLP1R; SCTR EC50/GLP1R EC50 ratio) | EC50 (GLP1R; CHO-K1 cells overexpressing hGLP1R, read-out: pEC50 hGLPR1 (converted)) [nM] | EC50 (SCTR; CHO-K1 cells overexpressing hSCTR, read-out: pEC50 hSCTR (converted)) [nM] | EC50 (GLP1R; [3]) [nM] | SCTR EC50/GLP1R EC50 ratio (GLP1R; [4]) | EC50 (SCTR; [5]) [nM] | EC50 (GLP1R; CHO-K1 cells stably overexpressing hGLP1R, read-out: hGLP1R potency (pEC50) (converted)) [nM] | SCTR EC50/GLP1R EC50 ratio (GLP1R; selectivity ratio, hSCTR vs hGLP1R) | EC50 (SCTR; CHO-K1 cells stably overexpressing hSCTR, read-out: hSCTR potency (pEC50) (converted)) [nM]
1 | CC(C)C[C@H](NC(=O)[C@H](CCC(=O)O)NC(=O)[C@H](CCCCNC(=O)COCCOCCNC(=O)COCCOCCNC(=O)CC[C@H](NC(=O)CCCCCCCCCCCCCCCCCCC(=O)O)C(=O)O)NC(=O)[C@H](CC(C)C)NC(=O)[C@@H](NC(=O)[C@H](CO)NC(=O)[C@@H](NC(=O)[C@H](CC(=O)O)NC(=O)[C@H](CO)NC(=O)[C@@H](NC(=O)[C@H](Cc1ccccc1)NC(=O)[C@@H](NC(=O)CNC(=O)[C@H](CCC(=O)O)NC(=O)C(C)(C)NC(=O)[C@@H](N)Cc1c[nH]cn1)[C@@H](C)O)[C@@H](C)O)C(C)C)C(C)C)C(=O)N[C@@H](C)C(=O)N[C@@H](C)C(=O)N[C@@H](CCC(N)=O)C(=O)N[C@@H](CCC(N)=O)C(=O)N[C@@H](CCCNC(=N)N)C(=O)N[C@@H](Cc1ccccc1)C(=O)N[C@@H](CC(C)C)C(=O)N[C@@H](CCC(=O)O)C(=O)N[C@@H](Cc1c[nH]cn1)C(=O)N[C@@H](CC(C)C)C(=O)N[C@H](C(N)=O)C(C)C [compound 33] (H-H[Aib]EGTFTSDVSVLK([AEEA-AEEA-γGlu-C20 diacid])ELAAQQRFLEHLV-NH2) | 0.08 | 45087 | 5737 | 0.0631 | 316 |  |  |  |  |  | 
2 | CC[C@H](C)[C@H](NC(=O)[C@H](Cc1ccccc1)NC(=O)[C@H](CCCNC(=N)N)NC(=O)[C@H](CCC(N)=O)NC(=O)[C@H](CC(C)C)NC(=O)[C@H](C)NC(=O)[C@H](C)NC(=O)CNC(=O)[C@H](CCC(=O)O)NC(=O)[C@H](CC(C)C)NC(=O)[C@H](CC(C)C)NC(=O)[C@H](Cc1ccc(O)cc1)NC(=O)[C@H](CO)NC(=O)[C@@H]1CCCN1C(=O)[C@H](CC(=O)O)NC(=O)[C@H](CO)NC(=O)[C@@H](NC(=O)[C@H](Cc1ccccc1)NC(=O)[C@@H](NC(=O)CNC(=O)[C@H](CCC(=O)O)NC(=O)C(C)(C)NC(=O)[C@@H](N)Cc1c[nH]cn1)[C@@H](C)O)[C@@H](C)O)C(=O)N[C@@H](CCC(N)=O)C(=O)N[C@@H](Cc1c[nH]c2ccccc12)C(=O)N[C@@H](CC(C)C)C(=O)N[C@H](C(N)=O)C(C)C [compound 128] (H-H[Aib]EGTFTSDPSYLLEGAALQRFIQWLV-NH2) | 0.20 | 6144 |  |  |  | 15.8 | 1467 | 20000 |  |  | 
3 | CC(C)C[C@H](NC(=O)[C@H](Cc1ccccc1)NC(=O)[C@H](CCCNC(=N)N)NC(=O)[C@H](CCC(N)=O)NC(=O)[C@H](CC(C)C)NC(=O)C(C)(C)NC(=O)[C@H](C)NC(=O)[C@H](CCC(=O)O)NC(=O)[C@H](CCC(=O)O)NC(=O)[C@H](CCCCNC(=O)COCCOCCNC(=O)COCCOCCNC(=O)CC[C@H](NC(=O)CCCCCCCCCCCCCCCCCCC(=O)O)C(=O)O)NC(=O)[C@H](CC(C)C)NC(=O)[C@H](Cc1ccc(O)cc1)NC(=O)[C@H](CO)NC(=O)[C@@H](NC(=O)[C@H](CC(=O)O)NC(=O)[C@H](CO)NC(=O)[C@@H](NC(=O)[C@H](Cc1ccccc1)NC(=O)[C@@H](NC(=O)CNC(=O)[C@H](CCC(=O)O)NC(=O)C(C)(C)NC(=O)[C@@H](N)Cc1c[nH]cn1)[C@@H](C)O)[C@@H](C)O)C(C)C)C(=O)N[C@@H](CCC(=O)O)C(=O)N[C@@H](Cc1ccc(O)cc1)C(=O)N[C@@H](CC(C)C)C(=O)N[C@H](C(N)=O)C(C)C [compound 144] (H-H[Aib]EGTFTSDVSYLK([AEEA-AEEA-γGlu-C20 diacid])EEA[Aib]LQRFLEYLV-NH2) | 0.08 | 5805 |  |  |  | 0.0158 | 16042 | 251 |  |  | 
4 | CC(C)C[C@H](NC(=O)[C@H](Cc1ccccc1)NC(=O)[C@H](CCCNC(=N)N)NC(=O)[C@H](CCC(N)=O)NC(=O)[C@H](CCC(=O)O)NC(=O)[C@H](C)NC(=O)[C@H](C)NC(=O)[C@H](Cc1ccccc1)NC(=O)[C@H](CCC(=O)O)NC(=O)[C@H](CCCCNC(=O)COCCOCCNC(=O)COCCOCCNC(=O)CC[C@H](NC(=O)CCCCCCCCCCCCCCCCCCC(=O)O)C(=O)O)NC(=O)[C@H](CC(C)C)NC(=O)[C@@H](NC(=O)[C@H](CO)NC(=O)[C@@H](NC(=O)[C@H](CC(=O)O)NC(=O)[C@H](CO)NC(=O)[C@@H](NC(=O)[C@H](Cc1ccccc1)NC(=O)[C@@H](NC(=O)CNC(=O)[C@H](CCC(=O)O)NC(=O)C(C)(C)NC(=O)[C@@H](N)Cc1c[nH]cn1)[C@@H](C)O)[C@@H](C)O)C(C)C)[C@@H](C)O)C(=O)N[C@@H](CCC(=O)O)C(=O)N[C@@H](Cc1c[nH]cn1)C(=O)N[C@@H](CC(C)C)C(=O)N[C@H](C(N)=O)C(C)C [compound 89] (H-H[Aib]EGTFTSDVSTLK([AEEA-AEEA-γGlu-C20 diacid])EFAAEQRFLEHLV-NH2) | 0.08 | 14469 |  |  |  | 0.02 | 81527 | 2000 |  |  | 
5 | CC(C)C[C@H](NC(=O)[C@H](Cc1ccccc1)NC(=O)[C@H](CCCNC(=N)N)NC(=O)[C@H](CCC(N)=O)NC(=O)[C@H](CC(C)C)NC(=O)C(C)(C)NC(=O)[C@H](C)NC(=O)[C@H](CCC(=O)O)NC(=O)[C@H](CCC(=O)O)NC(=O)[C@H](CCCCNC(=O)COCCOCCNC(=O)COCCOCCNC(=O)CC[C@H](NC(=O)CCCCCCCCCCCCCCCCCCC(=O)O)C(=O)O)NC(=O)[C@H](CC(C)C)NC(=O)[C@H](Cc1ccc(O)cc1)NC(=O)[C@H](CO)NC(=O)[C@@H](NC(=O)[C@H](CC(=O)O)NC(=O)[C@H](CO)NC(=O)[C@@H](NC(=O)[C@H](Cc1ccccc1)NC(=O)[C@@H](NC(=O)CNC(=O)[C@H](CCC(=O)O)NC(=O)CNC(=O)[C@@H](N)Cc1c[nH]cn1)[C@@H](C)O)[C@@H](C)O)C(C)C)C(=O)N[C@@H](CCC(=O)O)C(=O)N[C@@H](Cc1c[nH]cn1)C(=O)N[C@@H](CC(C)C)C(=O)N[C@H](C(N)=O)C(C)C [compound 142] (H-HGEGTFTSDVSYLK([AEEA-AEEA-γGlu-C20 diacid])EEA[Aib]LQRFLEHLV-NH2) | 0.08 | 3679 |  |  |  | 0.0126 | 1484910 | 20000 |  |  | 
6 | CC[C@H](C)[C@H](NC(=O)[C@H](Cc1ccccc1)NC(=O)[C@H](CCCNC(=N)N)NC(=O)[C@H](CCC(N)=O)NC(=O)[C@H](CC(C)C)NC(=O)[C@H](C)NC(=O)[C@H](C)NC(=O)CNC(=O)[C@H](CCC(=O)O)NC(=O)[C@H](CC(C)C)NC(=O)[C@H](CC(C)C)NC(=O)[C@@H](NC(=O)[C@H](CO)NC(=O)[C@H](Cc1c[nH]c2ccccc12)NC(=O)[C@H](CC(=O)O)NC(=O)[C@H](CO)NC(=O)[C@@H](NC(=O)[C@H](Cc1ccccc1)NC(=O)[C@@H](NC(=O)CNC(=O)[C@H](CCC(=O)O)NC(=O)C(C)(C)NC(=O)[C@@H](N)Cc1c[nH]cn1)[C@@H](C)O)[C@@H](C)O)C(C)C)C(=O)N[C@@H](CCC(N)=O)C(=O)N[C@@H](Cc1c[nH]c2ccccc12)C(=O)N[C@@H](CC(C)C)C(=O)N[C@H](C(N)=O)C(C)C [compound 188] (H-H[Aib]EGTFTSDWSVLLEGAALQRFIQWLV-NH2) | 0.85 | 260000 |  |  |  |  |  |  | 0.0794 | 468 | 31.6
7 | CC[C@H](C)[C@H](NC(=O)[C@H](Cc1ccccc1)NC(=O)[C@H](CCCNC(=N)N)NC(=O)[C@H](CCC(N)=O)NC(=O)[C@H](CC(C)C)NC(=O)[C@H](C)NC(=O)[C@H](C)NC(=O)CNC(=O)[C@H](CCC(=O)O)NC(=O)[C@H](CC(C)C)NC(=O)[C@H](CC(C)C)NC(=O)[C@H](Cc1ccccc1)NC(=O)[C@H](CO)NC(=O)C(C)(C)NC(=O)[C@H](CC(=O)O)NC(=O)[C@H](CO)NC(=O)[C@@H](NC(=O)[C@H](Cc1ccccc1)NC(=O)[C@@H](NC(=O)CNC(=O)[C@H](CCC(=O)O)NC(=O)C(C)(C)NC(=O)[C@@H](N)Cc1c[nH]cn1)[C@@H](C)O)[C@@H](C)O)C(=O)N[C@@H](CCC(N)=O)C(=O)N[C@@H](Cc1c[nH]c2ccccc12)C(=O)N[C@@H](CC(C)C)C(=O)N[C@H](C(N)=O)C(C)C [compound 111] (H-H[Aib]EGTFTSD[Aib]SFLLEGAALQRFIQWLV-NH2) | 0.24 | 26712 |  |  |  | 0.0316 | 70974 | 2000 |  |  | 
